Results published in patent publication US20250346550A1, “METHODS OF MODULATING ENDONUCLEASE G USING RESVERATROL AND ITS DERIVATIVES” (THE REGENTS OF THE UNIVERSITY OF COLORADO A BODY CORPORATE, priority 2022, published 2025).

Assays:
[1] = test system: PME defect of rad-23 deficient animals (proteasome pathway); experiment: PME microscopy assay in rad-23(tm2595) crosses; assay type: in vivo, C. elegans; conditions: 50 μM, 64-cell embryos (FIG. 3d)
Procedure: FIG. 3. Resveratrol isomers target CPS-6 to affect PME. a, b, Both cis-resveratrol and trans-resveratrol act paternally to affect PME. The numbers of MTR-stained paternal mitochondrial clusters in embryos at 64-cell (a) or 16-cell (b) stage from the indicated crosses were scored. N2 males or hermaphrodites were pretreated with 0.25% ethanol (Mock), 50 μM cis-resveratrol (a), or 50 μM trans-resveratrol (b) as indicated before mating. c-g, Quantification of MTR-stained paternal mitochondrial clusters in 64-cell embryos from the indicated crosses treated with 0.25% ethanol (Mock), 50 μM cis-resveratrol, and 50 μM trans-resveratrol, respectively. Alleles used are lgg-1(bp523), cps-6(tm3222) and rad-23(tm2595). Data are mean s.e.m; n≥15 embryos (a) and n≥20 embryos (b, c-g) were scored in each experiment. ***P<0.001; n.s., not significant, two-sided, unpaired t-test. h, Resveratrol isomers enhance or inhibit the nuclease activity of CPS-6 in a plasmid DNA cleavage assay. 10 ng of CPS-6 were incubated with 0.25% ethanol (Mock), 20 μM cis-resveratrol, or 20 μM trans-resveratrol in dark at 4° C. for 1.5 hours, before 1 μg of the pPD49.78 plasmid DNA were added to the reactions. After further incubation at 30° C. for 1 hour, the reactions were resolved on a 1% agarose gel. Three different forms of plasmid DNA are indicated. […]

[2] = target: T1, CPS-6 (Caenorhabditis elegans, UniProt Q95NM6); experiment: plasmid DNA cleavage assay; assay type: biochemical, C. elegans; conditions: 20 μM; for effect on CPS-6 nuclease activity: 10 ng CPS-6, pPD49.78 plasmid DNA
T1 construct: Recombinant CPS-6 protein was incubated with the supercoiled plasmid DNA substrate
T1 sequence (Q95NM6 1-308): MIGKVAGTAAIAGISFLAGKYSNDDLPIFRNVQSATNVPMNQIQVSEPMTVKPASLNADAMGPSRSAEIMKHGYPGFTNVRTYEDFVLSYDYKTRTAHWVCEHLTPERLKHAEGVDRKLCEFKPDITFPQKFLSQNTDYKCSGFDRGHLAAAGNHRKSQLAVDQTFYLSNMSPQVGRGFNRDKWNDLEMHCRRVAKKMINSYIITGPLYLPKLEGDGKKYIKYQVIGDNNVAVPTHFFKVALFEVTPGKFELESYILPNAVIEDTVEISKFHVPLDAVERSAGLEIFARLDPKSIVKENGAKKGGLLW
Procedure: FIG. 3. Resveratrol isomers target CPS-6 to affect PME. a, b, Both cis-resveratrol and trans-resveratrol act paternally to affect PME. The numbers of MTR-stained paternal mitochondrial clusters in embryos at 64-cell (a) or 16-cell (b) stage from the indicated crosses were scored. N2 males or hermaphrodites were pretreated with 0.25% ethanol (Mock), 50 μM cis-resveratrol (a), or 50 μM trans-resveratrol (b) as indicated before mating. c-g, Quantification of MTR-stained paternal mitochondrial clusters in 64-cell embryos from the indicated crosses treated with 0.25% ethanol (Mock), 50 μM cis-resveratrol, and 50 μM trans-resveratrol, respectively. Alleles used are lgg-1(bp523), cps-6(tm3222) and rad-23(tm2595). Data are mean s.e.m; n≥15 embryos (a) and n≥20 embryos (b, c-g) were scored in each experiment. ***P<0.001; n.s., not significant, two-sided, unpaired t-test. h, Resveratrol isomers enhance or inhibit the nuclease activity of CPS-6 in a plasmid DNA cleavage assay. 10 ng of CPS-6 were incubated with 0.25% ethanol (Mock), 20 μM cis-resveratrol, or 20 μM trans-resveratrol in dark at 4° C. for 1.5 hours, before 1 μg of the pPD49.78 plasmid DNA were added to the reactions. After further incubation at 30° C. for 1 hour, the reactions were resolved on a 1% agarose gel. Three different forms of plasmid DNA are indicated.
FIG. 11. Stabilized trans-resveratrol enhances the nuclease activity of CPS-6 in a plasmid DNA cleavage assay and is resistant to UV irradiation. 10 ng of CPS-6 were incubated with 0.25% ethanol (Mock), 20 μM locked trans-resveratrol with or without UV irradiation, 20 μM trans-resveratrol with or without UV irradiation, and 20 μM cis-resveratrol with or without UV irradiation, respectively, in dark at 4° C. for 1.5 hours, before 1 μg of the pPD49.78 plasmid DNA were added to the reactions. After further incubation at 30° C. for 1 hour, the reactions were resolved on a 1% agarose gel. Three different forms of plasmid DNA are indicated. Resveratrol isomers or derivative were subjected to UV irradiation for 3 hours.
Because resveratrol is an antioxidant and the endonuclease activity of CPS-6 is regulated by redox conditions both in vitro and in vivo, we investigated the possibility that resveratrol isomers could directly affect the nuclease activity of CPS-6 using a plasmid DNA cleavage assay. Recombinant CPS-6 protein was incubated with the supercoiled plasmid DNA substrate in the presence or absence of 20 μM trans-resveratrol or cis-resveratrol and the reactions were resolved by an agarose gel. […] Since the nuclease activity of CPS-6 is required for PME, these in vitro results are consistent with the in vivo observations that trans-resveratrol enhances and cis-resveratrol inhibits PME.

[3] = test system: α-synuclein-induced dopaminergic neuronal death in baIn11 animals; experiment: α-synuclein-based Parkinson's Disease model, DA neuronal death; assay type: in vivo, C. elegans; conditions: 100 μM; for effect on α-synuclein-induced DA neuronal death: adult day 2 baIn11 animals vs 0.25% ethanol
Source text: FIG. 8. […] In each experiment, 300 animals were scored to determine the percentage of animals losing at least one dopaminergic neuron in the head. Data are mean±s.e.m. *P<0.05; ***P<0.001, two-sided, unpaired t-test.
FIG. 13. […] In each experiment, 300 animals were scored to determine the percentage of animals losing at least one of the six dopaminergic neurons in the head. Data are mean±s.e.m. ****P<0.001, two-sided, unpaired t-test.
In addition to PME and apoptosis, EndoG was previously shown to play an important role in mediating dopaminergic (DA) neuronal death induced by expression of human α-synuclein, which is widely considered to be a major proponent of Parkinson's disease. However, the mechanism by which EndoG mediates α-synuclein-induced neurodegeneration is unclear. In a C. elegans α-synuclein-based Parkinson's Disease model, co-expression of GFP and human α-synuclein in C. elegans dopaminergic neurons under the control of the promoter of the dat-1 gene, which encodes a dopamine transporter, from an integrated transgene baIn11 (Pdat-1::gfp/Pdat-1::α-synuclein) caused DA neuronal death in 30% of adult baIn11 animals (FIG. 8a). The cps-6(tm3222) mutation blocked DA neuronal death in adult baIn11 animals (FIG. 8a), confirming that CPS-6 is important for α-synuclein-induced DA neuronal death.

[4] = test system: cross-fertilized embryos with persistent uaDf5 paternal mitochondria (loss of lgg-1); experiment: embryonic lethality caused by persistent uaDf5 paternal mitochondria; assay type: in vivo, C. elegans; conditions: 100 μM, males pretreated eight hours before mating, 25° C.
Procedure: FIG. 10. Trans-resveratrol reduces embryonic lethality through enhancing removal of mutant paternal mitochondria. The embryonic lethality rate was scored in cross-fertilized embryos from crosses of the indicated genotypes. Males were pretreated with either 0.5% ethanol (Mock) or […] trans-resveratrol (trans) for eight hours before mating. All males carried smIs42 to assist identification of zygotes. Data are means SEM; n>200 embryos per cross at 25° C. n.s., no significant difference; *P<0.05 using two-sided, unpaired t-test.
Several studies have shown that abnormal persistence of paternal mitochondria is detrimental to normal development and causes various deficiencies, including neurological and muscular defects, which lack treatment options.

Compound | effect on PME defects in rad-23 deficient animals [1] | effect on CPS-6 nuclease activity [2] | adult baIn11 animals protected from neurodegeneration ([3]; adult day 2) | effect on α-synuclein-induced DA neuronal death [3] | effect on CPS-6 nuclease activity after UV irradiation of the compound ([2]; compound UV irradiated for 3 hours (FIG. 11)) | adult baIn11 animals with neurodegeneration (DA neuronal loss) ([3]; adult day 2, mock 30%) | embryonic lethality caused by uaDf5 paternal mitochondria [4]
Oc1ccc(/C=C\c2cc(O)cc(O)c2)cc1 [cis-resveratrol] | enhanced | inhibits CPS-6 nuclease activity | 94% | strongly inhibited DA neuronal death | – | – | –
Oc1ccc(/C=C/c2cc(O)cc(O)c2)cc1 [trans-resveratrol, 3,5,4′-trihydroxy-trans-stilbene] | inhibited | enhances the endonuclease activity of CPS-6 | – | enhanced dopaminergic neuron loss | lost its activity to enhance the nuclease activity of CPS-6 | 40% | significantly reduced embryonic lethality
